Laboratory results reported in patent publication US20200017752A1, “Use Of A Composition Containing At Least One Biodegradable Sugar-Amide-Compound In Combination With At Least One Sulfur-Based Synergist For Corrosion Inhibition Of A Metallic Equipment In Oilfield Applications” (Clariant International Ltd., priority 2016, published 2020).

Tests used:
[1] = OECD 306 biodegradation
[2] = Corrosion test, rotating cylinder electrode (RCE), LPR; settings: 150° F., 2000 RPM, synthetic brine, 100% CO2, 12 ppm total inhibitor, vs 2 hr baseline
Text: In order to evaluate the corrosion inhibition efficacy of the formulations, two different test methods were employed: rotating cylinder electrode (RCE) tests and high pressure, high temperature (HPHT) autoclave weight loss tests. For all testing, the following standard brine composition was used (as outlined in table 3):
A gas composition of 100% CO2 was used throughout testing.
The metallurgy of the coupons tested was C1018 carbon steel for RCE testing and HPHT autoclave testing. Coupons were polished mechanically using 320 grit silicon-carbide (SiC) paper, 400 grit SiC paper, then 600 grit SIC paper and rinsed with water then acetone prior to testing.
The rotating cylinder electrode (RCE) tests were conducted in Pyrex™ glass reaction kettles that were heated to 150° F. The testing solution was comprised of 900 mL of brine. The electrode rotation rate was set at 2000 RPM, which generated a wall shear stress of 7.0 Pa. Linear polarization resistance (LPR) measurements were made with a Gamry electrochemical measurement system. The working electrode was made of a 1018 carbon steel (CS) cylinder with a surface area of 3.16 cm^2. A Hastelloy C276 electrode was used as a pseudo-reference, and a titanium rod was used as the counter electrode. […] The baseline corrosion rate corresponds to the blank corrosion value. Upon completion of the tests, the electrodes were cleaned in an inhibited acid bath according to ASTM G1 C.3.5, and weighed to 0.1 mg.

[3] = test system: Algae; experiment: Aquatic toxicity testing, 72 hr Algae EC50; type: cell-based
Protocol: (§1) Firstly the environmental data were determined according to OECD 306 biodegradability and aquatic toxicity testing on the glucamides and the result is outlined in Tables 1 and 2.

[4] = Marine BODIS biodegradation
Protocol: as §1

Compound	OECD 306 biodegradation Day 7 [1]	OECD 306 biodegradation Day 14 [1]	OECD 306 biodegradation Day 21 [1]	OECD 306 biodegradation Day 28 [1]	Protection 2 hr after Cl dose [2]	Protection Final 3 hr [2]	72 hr Algae EC50, Definitive result [3]	72 hr Algae EC50, Range-finding result [3]	Marine BODIS biodegradation Day 7 [4]	Marine BODIS biodegradation Day 14 [4]	Marine BODIS biodegradation Day 21 [4]	Marine BODIS biodegradation Day 28 [4]
N.O=C(O)CS [ATG, Ammonium Thioglycolate]	9%	20%	33%	39%	71.8%	91.4%	–	–	–	–	–	–
N.N.O=S(O)(O)=S [ATS, Ammoniumthiosulfate]	–	–	–	–	75.6%	91.2%	–	–	–	–	–	–
CCCCCCCCCC(=O)N(C)CC(O)C(O)C(O)C(O)CO (centres unmarked) [Glucamide #1]	15%	25%	33%	31%	72.1%	92.7%	165.24 µg/mL	335.40 µg/mL	–	–	–	–
CC(C)CCC(C)CCC(C)CC(=O)N(C)CC(O)C(O)C(O)C(O)CO (centres unmarked) [Glucamide #2]	–	–	–	–	79.1%	93.8%	–	–	–	–	–	–
CCCCCCCCCC(=O)N(C)CC1OC(CO)C(O)C1O (centres unmarked) [Glucamide #3]	–	–	–	–	73.4%	93.5%	–	–	–	–	–	–
CC(C)CCC(C)CCC(C)CC(=O)N(C)CC1OC(CO)C(O)C1O (centres unmarked) [Glucamide #4]	–	–	–	–	76.0%	94.3%	–	–	–	–	–	–
CCCCCCCC/C=C\CCCCCCCC(=O)N(C)CC(O)C(O)C(O)C(O)CO (centres unmarked) [Glucamide #5]	–	–	–	–	75.7%	94.0%	4.55 µg/mL	6.199 µg/mL	23%	33%	37%	42%
CCCCCCCC/C=C\CCCCCCCC(=O)N(C)CC1OC(CO)C(O)C1O (centres unmarked) [Glucamide #6]	–	–	–	–	76.7%	94.2%	–	–	–	–	–	–
OCCS [MET, Mercaptoethanol]	5%	6%	8%	17%	74.4%	91.4%	–	–	–	–	–	–
CCCCCCCC/C=C\CCCCCCCCN[C@@H](CCSC)C(=O)O [OMet, N-Oleyl-Methionine]	60%	60%	60%	60%	77.6%	92.7%	–	–	–	–	–	–
O=C([O-])c1ccccc1.[Na+] [Reference, sodium benzoate, reference compound]	78%	74%	86%	68%	–	–	–	–	66%	77%	81%	83%
NC(N)=S [TU, Thiourea]	19%	32%	20%	55%	–	–	–	–	–	–	–	–
